From ChEMBL document CHEMBL4190342, “Identifying novel factor XIIa inhibitors with PCA-GA-SVM developed vHTS models” (Eur J Med Chem, 2017)

Tests used:
Coagulation factor XII [1] = target: T1, Coagulation factor XII (Homo sapiens, UniProt P00748); test: Inhibition of human factor 12a using Boc-Gly-Gln-Arg-AMC substrate incubated for 1 hr by fluorescence assay
T1 sequence (P00748 whole entry): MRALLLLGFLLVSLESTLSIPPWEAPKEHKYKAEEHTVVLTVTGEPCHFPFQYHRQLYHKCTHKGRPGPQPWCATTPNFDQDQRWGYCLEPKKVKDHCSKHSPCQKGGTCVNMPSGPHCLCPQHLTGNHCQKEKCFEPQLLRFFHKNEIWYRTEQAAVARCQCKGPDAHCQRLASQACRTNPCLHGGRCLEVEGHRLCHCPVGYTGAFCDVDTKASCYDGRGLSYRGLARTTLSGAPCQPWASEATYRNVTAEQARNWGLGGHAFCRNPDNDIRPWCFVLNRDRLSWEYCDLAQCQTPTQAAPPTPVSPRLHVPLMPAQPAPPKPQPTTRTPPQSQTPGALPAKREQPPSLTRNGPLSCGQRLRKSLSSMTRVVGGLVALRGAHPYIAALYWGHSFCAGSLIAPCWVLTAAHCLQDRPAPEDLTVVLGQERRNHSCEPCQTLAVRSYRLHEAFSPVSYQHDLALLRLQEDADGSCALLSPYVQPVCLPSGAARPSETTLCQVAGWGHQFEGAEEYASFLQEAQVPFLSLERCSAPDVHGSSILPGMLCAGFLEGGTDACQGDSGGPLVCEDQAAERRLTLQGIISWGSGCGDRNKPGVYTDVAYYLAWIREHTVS

Coagulation factor XII [2] = target: T1, Coagulation factor XII; test: Inhibition of human factor 12a using Boc-Gly-Gln-Arg-AMC substrate incubated for 1 hr in presence of 0.01% Tween20 surfactant by fluorescence assay
Coagulation factor XII [3] = target: T1, Coagulation factor XII; test: Inhibition of human factor 12a using Boc-Gly-Gln-Arg-AMC substrate incubated for 1 hr in presence of 0.02% Tween20 surfactant by fluorescence assay
Coagulation factor XII [4] = target: T1, Coagulation factor XII; test: Inhibition of human factor 12a using Boc-Gly-Gln-Arg-AMC substrate incubated for 1 hr in presence of 0% Tween20 surfactant by fluorescence assay

| Compound | IC50 (Coagulation factor XII [1]) | other results |
| --- | --- | --- |
| Cc1ccc(/C=C(\C#N)c2nc3ccccc3[nH]2)cc1 | > 50 µM | – |
| COc1ccccc1C(=O)n1nnc2ccccc21 | 7.21 µM | – |
| COc1cc(OC)cc(C(=O)n2nnc3ccccc32)c1 | 25.4 µM | – |
| COc1ccccc1C(=O)n1nc(-c2cccnc2)nc1N | 0.68 µM | IC50 (Coagulation factor XII [2]): 2.63 µM; IC50 (Coagulation factor XII [3]): 2.43 µM; IC50 (Coagulation factor XII [4]): 1.85 µM |
| COc1ccc(/C=C(\C#N)c2nc3ccccc3[nH]2)cc1OC | > 50 µM | – |
| N#C/C(=C\c1ccccc1)c1nc2ccccc2[nH]1 | > 50 µM | – |
| COC(=O)c1ccc(/C=C(\C#N)c2nc3ccc(C)cc3[nH]2)cc1 | > 50 µM | – |
| COc1ccc(/C=C(\C#N)c2nc3ccc(C)cc3[nH]2)cc1 | > 50 µM | – |
| Cc1ccc2nc(/C(C#N)=C/c3ccccc3)[nH]c2c1 | > 50 µM | – |
| O=C(c1ccc(Cl)cc1)n1nnc2ccccc21 | 31.7 µM | – |
| COc1cccc(/C=C(\C#N)c2nc3ccccc3[nH]2)c1 | > 50 µM | – |
| O=C(c1ccc(Br)cc1)n1nnc2ccccc21 | 0.6 µM | – |
| O=C(c1ccco1)n1nnc2ccccc21 | 34.1 µM | – |
